Earlier results on two molecules are cited in patent US6011041A, “Use of anhydrovinblastine” (priority 1996, dated 2000).

For series [1] the following is noted: humans; cited from earlier work.
The test system of a further series is tumour. The conditions noted are these: alkaloids extracted from Vinca rosea; cited from earlier work.
In another series the test system is human rhabdosarcomas. The conditions noted are these: in vivo; cited from earlier work.

Take `CC[C@]1(O)C[C@@H]2CN(CCc3c([nH]c4ccccc34)[C@@](C(=O)OC)(c3cc4c(cc3OC)N(C)[C@H]3[C@@](O)(C(=O)OC)[C@H](OC(C)=O)[C@]5(CC)C=CCN6CC[C@]43[C@@H]65)C2)C1` [vinblastine]: in series [1], the dose limiting toxicity entry is “anemia and leucopenia”. In addition, in the series with tumour, the antitumour activity entry is listed as “significant antitumour activity”. Moreover, in the series with human rhabdosarcomas, the “activity in human rhabdosarcomas transplanted in nude mice” value is given as “not active in this system”.
`CC[C@]12CN3CCc4c([nH]c5ccccc45)[C@@](C(=O)OC)(c4cc5c(cc4OC)N(C)[C@H]4[C@@](O)(C(=O)OC)[C@H](OC(C)=O)[C@]6(CC)C=CCN7CC[C@]54[C@@H]76)C[C@@H](C3)[C@H]1O2` [vinleurosine]: the antitumour activity entry in the series with tumour was “significant antitumour activity”.
